We go through one molecule from BindingDB's records for doi:10.7270/Q2668BKB (The Scripps Research Institute Molecular Screening Center, 2009).

The assay has as its target T1, 2'-phosphotransferase (Candida albicans (strain SC5314 / ATCC MYA-2876), UniProt Q5A7N4).
T1 sequence (Q5A7N4 whole entry): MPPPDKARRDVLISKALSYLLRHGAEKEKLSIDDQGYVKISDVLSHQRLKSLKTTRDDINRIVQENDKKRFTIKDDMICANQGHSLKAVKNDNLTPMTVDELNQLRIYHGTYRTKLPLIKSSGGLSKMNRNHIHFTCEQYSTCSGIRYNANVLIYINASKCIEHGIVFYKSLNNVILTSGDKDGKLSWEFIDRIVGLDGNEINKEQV
As to the kind of experiment: TPT1 tRNA phosphotransferase inhibitors, dose response, biochemical, fluorescence polarization (AID 2160). For orientation: In fluorescence polarisation assays a small probe gives low polarisation when free and higher when bound to something large.

What is called IC50 is the concentration needed to halve the response being measured. As for `Cc1ccc2nc(N=NCc3ccc([N+](=O)[O-])o3)nc(-c3ccccc3)c2c1`, the IC50 is greater than 55.7 µM.
